Laboratory results taken from US20260076369A1, “USE OF MELATONIN AND/OR PRECURSOR THEREOF FOR DECREASING THE PLANT NITRATE CONTENT” (priority 2022, published 2026).
Marks after values point to notes of the source that are not given here.

Legend:
[1] = tested on: French Bean plants (Phaseolus vulgaris); test: Nitrate concentration in bean leaves after soil application; format: in vivo; settings: 20 micromolar total
Description: French Bean plants (Phaseolus vulgaris), were cultivated in pots containing a peat substrate and receiving mineral fertilization including 40 kg N/hectare by ammonium nitrate and 20 kg SO3/hectare by magnesium sulfate in a greenhouse under controlled conditions (16 h light/8 h dark and 25° C.). The fertilizers were brought to the surface of the pots after 10 days of culture.
Just after adding the fertilizers, the plants were divided in four groups. The experiment was arranged in a randomized complete block design with six replicates. The Control group (CT) was without any treatment; 3 groups were treated by addition of an aqueous solution of (1) synthetic melatonin (SM) (20 micromolar), (2) phytomelatonin (pM) (20 micromolar) from a Spirulina extract and (3) a combination of synthetic melatonin (10 micromolar), and phytomelatonin from a rich Spirulina extract (CM) (10 micromolar). Applications have been done in the soils 10 days after transplantation and one time every 7 days. Plants were harvested 6 weeks after transplanting and 2 weeks after the last treatment. Then leaves were dried and used for the determination of dry weight and nitrate content. Nitrate concentration in the leaves was determined by High Performance Ionic Chromatography. The results were expressed in mg NO3/g of dry matter.

[2] = tested on: Lettuce plants (Lactuca sativa L.); test: Nitrate concentration in lettuce leaves after foliar spray; format: in vivo; settings: for decrease of leaves nitrate content: 20 micromolar, vs control; for Nitrate concentration in lettuce leaves: 20 micromolar spray with Tween 20; for time the decrease of leaf nitrate content is maintained after the treatment: lettuce, 20 micromolar foliar spray
Description: Lettuce plants (Lactuca sativa L.), were cultivated in pots containing an alkaline soil and receiving mineral fertilization including ammonium nitrate (NAC 27) in a greenhouse under controlled conditions (16 h light/8 h dark and 25° C.). Once the commercial size of the plants was reached, the plants were divided in three groups. The Control group (CT) was sprayed with water and a surfactant (Tween 20); the melatonin (M) group was sprayed with a solution of 20 micromolar of synthetic melatonin and the adjuvant; and the tryptophan group (Tr) was sprayed with a solution of 20 micromolar of biosynthetic tryptophan and the adjuvant. The plants were harvested 48 h and […] after foliar application at 12 am. Nitrate concentration in the leaves was determined in leaf water extract by colorimetric detection at 415 nm after reaction of nitrate with salicylic acid in acidic medium and the formation of nitrosalicylate. Each treatment and harvest had five plants.

[3] = harvest 48 h after foliar application, CT 1563
[4] = harvest 120 h after foliar application, CT 1452

SMILES | decrease of nitrate content in bean leaves ([1]; 2 weeks after the last treatment, vs control) [%] | Nitrate content in bean leaves ([1]; applied to soil every 7 days, harvest 2 weeks after last treatment, CT 2.47) | decrease of leaves nitrate content ([2]; 48 h after the treatment) [%] | decrease of leaves nitrate content ([2]; 120 h after the treatment) [%] | Nitrate concentration in lettuce leaves [2, 3] | Nitrate concentration in lettuce leaves [2, 4] | time the decrease of leaf nitrate content is maintained after the treatment [2]
COc1ccc2[nH]cc(CCNC(C)=O)c2c1 [Melatonin, N-acetyl-5-methoxy tryptamine] | 79 | 0.52* mg/g of dry weight | 53 | 50 | 738* mg kg^−1 fresh weight | 706* mg kg^−1 fresh weight | at least 5 days
N[C@@H](Cc1c[nH]c2ccccc12)C(=O)O [tryptophan] | – | – | 50 | 39 | 780* mg kg^−1 fresh weight | 887* mg kg^−1 fresh weight | at least 5 days
